“And” between values parts separate entries of the source, which are not always exact repeats. Equal values may be shown once. Read-outs that look alike come from different tables or passages of the source.
Legend:
Thymoma = experiment: Phase I/II efficacy; format: in vivo, human; settings: belinostat + PAC
[1] = cited from earlier work
[2] = system: γ-H2AX expression on CD3+ and CD14+ cells; experiment: DNA damage: γ-H2AX expression in PBMC; format: in vivo, human
TETs = settings: single-agent belinostat, cited from earlier work
[3] = system: protein acetylation, tubulin acetylation, p21 in PBMC; experiment: Protein/tubulin acetylation and p21 in PBMC by multiparametric flow cytometry; format: in vivo, human
[4] = system: patients with advanced thymic epithelial tumors; experiment: Safety: treatment-related adverse events; format: in vivo, human
Thymic carcinoma = experiment: Phase I/II efficacy; format: in vivo, human; settings: belinostat + PAC
thymic epithelial tumors = experiment: Phase I/II efficacy; format: in vivo, human
[5] = system: Regulatory T cells and CD8+ T cells; experiment: T cell subsets and immune markers in PBMC by flow cytometry; format: in vivo, human
[6] = system: patients with advanced thymic epithelial tumors; experiment: Phase I dose escalation; format: in vivo, human
[7] = Plasma pharmacokinetics of belinostat, 48-hr CIVI, cycle 1; format: in vivo, human; settings: for clearance / half-life: human, plasma, intravenous; for half-life: cycle 1, n=25
[8] = following belinostat plus chemotherapy, p<0.0001
[9] = Dose level 1 (n=24), belinostat 1000 mg/m^2 + PAC
[10] = Dose level 2 (n=2), belinostat 2000 mg/m^2 + PAC
[11] = 23 evaluable patients treated at dose level 1
[12] = belinostat + PAC, Total, 25 evaluable patients

O=C(/C=C/c1cccc(S(=O)(=O)Nc2ccccc2)c1)NO [belinostat, N-hydroxy-3-(phenylsulphamoylphenyl) acrylamide]
Median DOR (Thymoma): not reached | Median overall survival (Thymoma): Not reached | Median progression-free survival (Thymoma): Not reached | Complete response (Thymoma; 11 evaluable patients): 1 (9) n (%) | Disease control rate (95% confidence interval) (Thymoma; 11 evaluable patients): 100 (71.5–100.0) % | Objective Response Rate (95% confidence interval) (Thymoma; 11 evaluable patients): 64 (30.8–89.1) % | Partial Response (Thymoma; 11 evaluable patients): 6 (55) n (%) | Progressive Disease (Thymoma; 11 evaluable patients): 0 n (%) | Stable Disease (Thymoma; 11 evaluable patients): 4 (36) n (%) | Elimination half-life ([1]; administered IV with paclitaxel and carboplatin): 102 min | Elimination half-life ([1]; administration over 30 minutes): 31.2 to 32.4 min | Elimination half-life ([1]; orally alone): 114 min | γ-H2AX expression on CD3+ cells ([2]; after belinostat alone, p=0.033): increased | γ-H2AX expression on CD14+ cells ([2]; after belinostat alone, p=0.41): did not increase significantly | γ-H2AX expression on CD14+ cells ([2]; after belinostat plus chemotherapy, p=0.012): increased | γ-H2AX expression on CD3+ cells ([2]; following belinostat plus chemotherapy, p=0.01): increased | Patients with stable disease (TETs; of 41 patients): 25 patients | Median overall survival (TETs; overall population): 19.1 months | Median time to progression (TETs; overall population): 5.8 months | Responses in patients with thymic carcinoma (TETs): no responses | Patients with increase in total protein hyperacetylation of CD3+ cells ([3]; 21 of 23 patients, after belinostat): 91% | Increase in total protein hyperacetylation of CD3+ cells, median ([3]; after belinostat): 2.5 fold | p21 expression in CD14+ cells ([3]; after belinostat alone, p=0.019): increased | PBMC acetylated tubulin ([3]; after belinostat, p<0.0001): increased significantly | Total protein hyperacetylation of CD3+ cells ([3]; after belinostat, p<0.0001): increased significantly | Total protein hyperacetylation of CD14+ cells ([3]; after belinostat, p= 0.026): increased only marginally | p21 expression in CD14+ cells [3, 8]: increased | PBMC acetylated tubulin ([3]; following belinostat plus chemotherapy, p=0.0001): increased significantly | Alanine aminotransferase increased, Grade 3/4 (%) ([4]; All dose levels (n= 26)): 4 (15) n (%) | Aspartate aminotransferase increased, Grade 3/4 (%) ([4]; All dose levels (n= 26)): 6 (23) n (%) | Atrial fibrillation, Grade 3/4 (%) ([4]; All dose levels (n= 26)): 1 (4) n (%) | Ejection fraction decreased, Grade 3/4 (%) ([4]; All dose levels (n= 26)): 1(4) n (%) | Electrocardiogram QT corrected interval prolonged, Grade 3/4 (%) ([4]; All dose levels (n= 26)): 1(4) n (%) | Enterocolitis infectious, Grade 3/4 (%) ([4]; All dose levels (n= 26)): 2(8) n (%) | Febrile neutropenia, Grade 3/4 (%) ([4]; All dose levels (n= 26)): 3(12) n (%) | Hearing impaired, Grade 3/4 (%) ([4]; All dose levels (n= 26)): 1(4) n (%) | Hypermagnesemia, Grade 3/4 (%) ([4]; All dose levels (n= 26)): 3 (12) n (%) | Hypoalbuminemia, Grade 3/4 (%) ([4]; All dose levels (n= 26)): 2(8) n (%) | Hypocalcemia, Grade 3/4 (%) ([4]; All dose levels (n= 26)): 2(8) n (%) | Hypokalemia, Grade 3/4 (%) ([4]; All dose levels (n= 26)): 4(15) n (%) | Hypomagnesemia, Grade 3/4 (%) ([4]; All dose levels (n= 26)): 1(4) n (%) | Hyponatremia, Grade 3/4 (%) ([4]; All dose levels (n= 26)): 1(4) n (%) | Hypophosphatemia, Grade 3/4 (%) ([4]; All dose levels (n= 26)): 6(23) n (%) | Limb edema, Grade 3/4 (%) ([4]; All dose levels (n= 26)): 1 (4) n (%) | Lung infection, Grade 3/4 (%) ([4]; All dose levels (n= 26)): 2(8) n (%) | Lymphocyte count decreased, Grade 3/4 (%) ([4]; All dose levels (n= 26)): 26 (100) n (%) | Neutrophil count decreased, Grade 3/4 (%) ([4]; All dose levels (n= 26)): 21 (81) n (%) | Non-cardiac chest pain, Grade 3/4 (%) ([4]; All dose levels (n= 26)): 1(4) n (%) | Pain in extremity, Grade 3/4 (%) ([4]; All dose levels (n= 26)): 1(4) n (%) | Platelet count decreased, Grade 3/4 (%) ([4]; All dose levels (n= 26)): 12 (46) n (%) | Thromboembolic event, Grade 3/4 (%) ([4]; All dose levels (n= 26)): 3(12) n (%) | Tumor lysis syndrome, Grade 3/4 (%) ([4]; All dose levels (n= 26)): 1(4) n (%) | Urinary tract infection, Grade 3/4 (%) ([4]; All dose levels (n= 26)): 1(4) n (%) | White blood cell decreased, Grade 3/4 (%) ([4]; All dose levels (n= 26)): 24 (92) n (%) | Alanine aminotransferase increased, Grade 3/4 [4, 9]: 3 | Aspartate aminotransferase increased, Grade 3/4 [4, 9]: 4 | Ejection fraction decreased, Grade 3/4 [4, 9]: 1 | Electrocardiogram QT corrected interval prolonged, Grade 3/4 [4, 9]: 1 | Enterocolitis infectious, Grade 3/4 [4, 9]: 1 | Febrile neutropenia, Grade 3/4 [4, 9]: 3 | Hearing impaired, Grade 3/4 [4, 9]: 1 | Hypermagnesemia, Grade 3/4 [4, 9]: 3 | Hypoalbuminemia, Grade 3/4 [4, 9]: 1 | Hypomagnesemia, Grade 3/4 [4, 9]: 1 | Hypophosphatemia, Grade 3/4 [4, 9]: 4 | Lung infection, Grade 3/4 [4, 9]: 2 | Lymphocyte count decreased, Grade 3/4 [4, 9]: 24 | Neutrophil count decreased, Grade 3/4 [4, 9]: 19 | Non-cardiac chest pain, Grade 3/4 [4, 9]: 1 | Pain in extremity, Grade 3/4 [4, 9]: 1 | Platelet count decreased, Grade 3/4 [4, 9]: 10 | Thromboembolic event, Grade 3/4 [4, 9]: 3 | Urinary tract infection, Grade 3/4 [4, 9]: 1 | White blood cell decreased, Grade 3/4 [4, 9]: 22 | Alanine aminotransferase increased, Grade 3/4 [4, 10]: 1 | Aspartate aminotransferase increased, Grade 3/4 [4, 10]: 2 | Atrial fibrillation, Grade 3/4 [4, 10]: 1 | Enterocolitis infectious, Grade 3/4 [4, 10]: 1 | Hypoalbuminemia, Grade 3/4 [4, 10]: 1 | Hypophosphatemia, Grade 3/4 [4, 10]: 2 | Lymphocyte count decreased, Grade 3/4 [4, 10]: 2 | Neutrophil count decreased, Grade 3/4 [4, 10]: 2 | Platelet count decreased, Grade 3/4 [4, 10]: 2 | Tumor lysis syndrome, Grade 3/4 [4, 10]: 1 | White blood cell decreased, Grade 3/4 [4, 10]: 2 | Patients requiring dose reductions of PAC due to toxicities ([4]; belinostat + PAC, n=26): 35% | Patients who discontinued treatment due to adverse events ([4]; belinostat + PAC, n=26): Four | Patients with QTc prolongation ([4]; belinostat + PAC, n=26, any grade, one grade 3 event): 35% | Median overall survival (Thymic carcinoma): 21.4 months | Median progression-free survival (Thymic carcinoma): 7.2 months | Complete response (Thymic carcinoma; 14 evaluable patients): 0 n (%) | Disease control rate (95% confidence interval) (Thymic carcinoma; 14 evaluable patients): 93 (66.1–99.8) % | Objective Response Rate (95% confidence interval) (Thymic carcinoma; 14 evaluable patients): 21 (4.7–50.8) % | Partial Response (Thymic carcinoma; 14 evaluable patients): 3 (21) n (%) | Progressive Disease (Thymic carcinoma; 14 evaluable patients): 1 (7) n (%) | Patients who underwent R0 or R1 resection (thymic epithelial tumors; 9 of 23 assessed after at least 4 cycles of belinostat + PAC): 39% | Patients with PD (thymic epithelial tumors; [11]): 4% | Patients with PRs (thymic epithelial tumors; [11]): 30% | Patients with CR (thymic epithelial tumors; 23 evaluable patients treated at dose level 1 (belinostat 1000 mg/m^2 + PAC)): 4% | Patients with no evidence of disease at the time of reporting (thymic epithelial tumors; Six of 23, after multimodality therapy): 26% | Median progression-free survival (thymic epithelial tumors; belinostat + PAC, Total): 9 months and 9.0 months | Complete response (thymic epithelial tumors; [12]): 1 (4) n (%) | Disease control rate (95% confidence interval) (thymic epithelial tumors; [12]): 96 (79.7 –99.9) % | Objective Response Rate (95% confidence interval) (thymic epithelial tumors; [12]): 40 (21.1 –61.3) % | Partial Response (thymic epithelial tumors; [12]): 9 (36) n (%) | Progressive Disease (thymic epithelial tumors; [12]): 1 (4) n (%) | Stable Disease (thymic epithelial tumors; [12]): 14 (56) n (%) | Median overall survival (thymic epithelial tumors; belinostat + PAC, Total, median potential follow up 20.5 months): 28.5 months | Fraction of CTLA4-expressing Tregs ([5]; after belinostat alone, p=0.0078): increased significantly | Fraction of CTLA4-expressing Tregs ([5]; after belinostat plus chemotherapy, p<0.0001): increased significantly | TIM3+ CD8+T cells ([5]; following belinostat alone vs baseline, p < 0.0001): decreased significantly | PD-1+ CD8+ T cells ([5]; following belinostat alone vs baseline, p=0.01): decreased significantly | Number of Tregs ([5]; following belinostat alone, p=0.0009): decreased significantly | Number of Tregs [5, 8]: decreased significantly | TIM3+ CD8+T cells ([5]; following belinostat with chemotherapy vs baseline, p <0.0001): decreased significantly | Median progression-free survival ([5]; patients with greater decline in Tregs post-combination therapy): not reached | Median progression-free survival ([5]; patients with greater decline in post-combination therapy TIM3+ CD8+T cells): not reached | Median OS ([5]; patients with higher pre-treatment CTLA4-expressing Tregs): 18.8 months | Median progression-free survival ([5]; patients with lesser decreases in TIM3+ CD8+T cells): 7.8 months | Median OS ([5]; patients with lower pre-treatment CTLA4-expressing Tregs): 37.5 months | Dose-limiting toxicities ([6]; 2000 mg/m^2 belinostat (dose level 2) with PAC, in two patients): grade 3 nausea and diarrhea and grade 4 neutropenia and thrombocytopenia | Maximum-tolerated dose (MTD) of belinostat ([6]; CIVI over 48 hours with PAC, 3-week cycles): 1000 mg/m^2 | Plasma concentration of belinostat during the 48-hour infusion ([7]; 250 mg/m^2 per 12-h infusion, with PAC): around 1 μM | clearance ([7]; Clearance, range, 48-hr CIVI, cycle 1, all patients): 683 to 13200 mL/min | clearance ([7]; Clearance, range, after excluding outlier patient): 683 to 3350 mL/min | half-life ([7]; Half-life, range, 48-hr CIVI): 12 to 54.6 min | clearance ([7]; Mean clearance, 48-hr CIVI, cycle 1, all patients): 2220 mL/min | half-life ([7]; Mean half-life, 48-hr CIVI): 28.2 min | clearance ([7]; Total systemic clearance, the only patient with high serum creatinine (1.43 mg/dL)): 1770 mL/min | Differences in CMAX, AUCINF, clearance and half-life between genders and races ([7]; in vivo): no statistically significant differences

— publication PMC4216756 (Clinical cancer research : an official journal of the …, 2014)
